90 molecules from a melting point compilation (Tetko et al.; mined from patent text by program, amines drawn as free bases though some values may be those of a salt) can be followed below.

SMILES strings stand for the structures.

With `CCOC(=O)CCc1ccc2c(CCC(=O)OCC)c(O)ccc2n1`, the melting point was 74 to 76 °C.

`Nc1ccc(C(=O)N2CCC=Cc3sccc32)c(Cl)c1`: the melting point fell in the range of 192 to 200 °C.

`Cn1cc(S(C)=O)c(=O)c2sc(-c3ccccc3Cl)cc21` (stereo not given) yielded a melting point of 167 to 169 °C.

Molecule `COCOc1ccc2c(c1)OC(C)(C)CC2=O` gave a melting point of 77 to 79 °C.

In turn, `CC(N)Cc1ccc(OCC(=O)NCCc2ccc(O)cc2)cc1` (stereo not given) yielded a melting point of 160 to 163 °C.

Molecule `N#CC1CCN(C(=O)c2ccc3nonc3c2)CC1` yielded a melting point of 104 to 107 °C.

Regarding `C#CCSc1cc(-c2nn(C)c(SC)c2Cl)c(F)cc1Cl`, the melting point fell in the range of 93 to 96 °C.

As to `O=C(O)Cc1c(Cl)nc(-c2cc([N+](=O)[O-])c(Cl)c([N+](=O)[O-])c2)n1Cc1ccccc1`, the melting point was in the range of 100 to 105 °C.

As for `O=C1OCCC1Oc1ccc(C(F)(F)F)cc1[N+](=O)[O-]` (stereo not given), the melting point lay in the range of 128 to 129 °C.

Take `O=C(Nc1ccccc1F)OC1CN2CCC1CC2` (stereo not given): the melting point was in the range of 124 to 126 °C.

Molecule `COc1ccc(OC)c(C2(O)CCCCC2C(c2ccccc2)N(C)C)c1` (stereo not given) displayed a melting point of over 240 °C.

For the molecule `CC(C)(C)c1ccc(C(=O)Nc2ccccc2C(=O)NCCc2ncc[nH]2)cc1`, the melting point is 127 to 132 °C.

`OC1(c2ccc(F)cc2)Cc2ccccc2C2=NCCN21` (stereo not given): the melting point was in the range of 150 to 151 °C.

For the molecule `CCCCCCCCCCCCCCCCCCOCC(COC(c1ccccc1)(c1ccccc1)c1ccccc1)OS(=O)(=O)c1ccc(C)cc1` (stereo not given), the melting point lay within 52 to 53 °C.

In turn, `CC(C#N)(c1ccc(Cl)cc1)c1ccc(-n2ncc(=O)[nH]c2=O)cc1Cl` (stereo not given) displayed a melting point of 235 °C.

`COc1ccc(C(=O)CCC(=O)O)c(Cl)c1Cl` yielded a melting point of 142 to 144 °C.

As for `CN(Cc1ccccc1)c1nc(N2CCC(N(C)C)CC2)nc2c(N3CCOCC3)ncnc12`, the melting point was 122 °C.

On to `CCOC(=O)c1cc(C(=O)OCC)c2c(Cl)cc(Cl)cc2n1`, for which the melting point was in the range of 104 to 106 °C.

In the case of `O=C(c1ccc([N+](=O)[O-])cc1)N1CCc2cn[nH]c2-c2ncccc21`, the melting point was 255 to 256 °C.

Turning to `CCCC(C)(c1ccc(F)cc1)c1cc(O)c2c3c(c(=O)oc2c1)CCC3` (stereo not given), the melting point lay in the range of 133 to 135 °C.

The molecule `CC(c1ccccc1)c1cc2c(=O)[nH]c(N)nc2s1` (stereo not given) gave a melting point of 260 to 270 °C.

`CCOC(=O)C(O)C1OC(n2cnc3c(N)ncnc32)C(O)C1O` (stereo not given) registered a melting point of 265 to 268 °C.

The molecule `CCOCCc1c(N=[N+]=[N-])nc(NC(=O)NCC(=O)O)nc1-c1ccccc1` returned a melting point of 160 °C.

`CCOC(OCC)c1cc(Nc2ccc(OC)cc2)c(F)c(-c2ccc(Cl)cc2)n1` displayed a melting point of 110 to 111 °C.

`O=C1c2ccccc2C(=O)N1c1c(F)cc(Cl)c2c1CCCO2` yielded a melting point of 198 to 200 °C.

`CNC(=O)[C@@H](NC(=O)Nc1n[nH]c(=S)s1)C(C)OCc1ccccc1` (stereo not given in full) showed a melting point of 187 to 189 °C.

On to `CCOP(=O)(OCC)C1CCn2c(=O)c(=O)[nH]c3cc(C(F)(F)F)cc1c32` (stereo not given), for which the melting point was 250 °C.

In turn, `CSC(=S)NN=Cc1c[nH]cn1` had a melting point of 259 to 261 °C.

`Cc1cc2cn[nH]c(=O)c2n1CC(C)C`: the melting point lay within 188 to 191 °C.

`Nc1ccc(SCc2cnc3ccccn23)cc1` registered a melting point of 119 to 121 °C.

`Cc1cc2c(cc1Br)-c1cc(C)c(Br)c(C)c1OP2(=O)O` gave a melting point of 240 °C.

As to `Cc1c(-c2ccncc2)[nH]c(-c2ccncc2)c1C(C)O` (stereo not given), the melting point is 250 to 252 °C.

The molecule `Cc1noc(C)c1C(=O)Nc1ccc(-n2ccc(C(F)(F)F)n2)cc1` yielded a melting point of 177 to 178 °C.

In turn, `O=C(O)Cc1c(C(=O)c2ccc(Cl)cc2)[nH]c2ccccc12` returned a melting point of 221 to 224 °C.

For the molecule `CN(C)c1ncnc2c1ncn2C1CC(F)C(CO)O1` (stereo not given), the melting point is 105 to 107 °C.

`N#Cc1cc(-c2cccs2)[nH]c1-c1cccs1`: the melting point fell in the range of 202 to 204 °C.

As to `CS(=O)(=O)c1cc(OCc2ccccc2)cs1`, the melting point lay within 108 to 109 °C.

The molecule `CC(C)=CCc1cc(C(=O)C=Cc2ccc(O)cc2)c(O)cc1O` yielded a melting point of 157 to 158 °C.

For the molecule `CC12CCC(C1)C1(C)Oc3ccc(C(O)COc4ccc(C(=O)O)cc4)cc3C21C` (stereo not given), the melting point turned out to be 123 °C.

`COC(C)Cn1c(C)nc2c(N)nc3ccccc3c21` (stereo not given): the melting point was in the range of 196 to 197 °C.

Regarding `COc1ccccc1CCN(CCCCC(=O)c1ccc2c(c1)CCN2C(=O)Nc1ccccc1)C(=O)OC(C)(C)C`, the melting point was 136 to 137 °C.

Regarding `CN(C)CCCOc1ccc(N(C(=O)c2ccc(Cl)cc2)c2ccccc2)cc1`, the melting point fell in the range of 81.5 to 85.5 °C.

In turn, `C#Cc1ccc2nc(Cl)c(S(=O)(=O)N=CN(CC(C)C)CC(C)C)n2n1` registered a melting point of 166 to 168 °C.

As for `COc1cc(C(=O)Cl)ccc1NC(=O)c1ccccc1-c1ccccc1`, the melting point lay in the range of 121 to 123 °C.

The molecule `CCOC(Cc1ccc(OCCN(C)c2nc3ccccc3o2)cc1)c1nc(C)no1` (stereo not given) showed a melting point of 61 to 62 °C.

In turn, `Cc1[nH]n(C)c2nc(-c3ccncc3)nc(=O)c1-2` yielded a melting point of over 301 °C.

Turning to `O=[PH]1Oc2ccccc2-c2ccccc21` (stereo not given), the melting point was found to be 116 °C.

On to `O=C(O)c1ccc(OCCCO/N=C/c2cc(C(F)(F)F)cc(C(F)(F)F)c2)cc1O`, for which the melting point lay in the range of 182 to 183 °C.

Turning to `O=C(CCO)NCc1ccc2ccn(C3CCN(CCc4ccccc4F)CC3)c2c1`, the melting point is 58 to 59 °C.

In the case of `CC(CO)CCCC(C)C1CCC2C3CC=C4C(C)(C)C(O)CCC4(C)C3CCC12C` (stereo not given), the melting point was 174 to 175 °C.

In turn, `O=C(O)C1CCc2c([nH]c3ccc(O)cc23)C1` (stereo not given) returned a melting point of 255 to 257 °C.

`CCOC(=O)/C=C/c1ccc2c(c1)nc(N)c1nc(CC)n(CC3CCOCC3)c12` had a melting point of 209 to 210 °C.

Take `CCn1c(C)nc(N2CCc3ccccc3CC2)c([N+](=O)[O-])c1=O`: the melting point lay in the range of 145 to 147 °C.

The molecule `CN(C)C=CC(=O)c1cccc(N(C)C(=O)C2CC2)c1` came in with a melting point of 120 to 122 °C.

`CCOC(=O)c1c(-c2cccs2)nn(CC)c(=O)c1Nc1cccnc1` showed a melting point of 124 to 125 °C.

With `O=c1ccc(S(=O)(=O)c2cc3cc(Cl)ccc3o2)n[nH]1`, the melting point lay within 246 to 247 °C.

The molecule `Cc1nc(N)c(O)c(=O)[nH]1` displayed a melting point of over 300 °C.

With `NC(=O)CCN1CC(O)CC1=O` (stereo not given), the melting point is 99 to 100 °C.

`C#CCOC(=O)c1c(F)cccc1Oc1nc(OC)cc(OC)n1`: the melting point was 49 to 50 °C.

In the case of `Cc1nn(-c2ccccn2)c2[nH]c3ccc(N)cc3c(=O)c12`, the melting point was in the range of 260 to 262 °C.

`CC(C)c1cccc(C(C)C)c1NC(=O)CNC(c1ccccc1)c1ccc(F)cc1` (stereo not given) gave a melting point of 161 °C.

As to `Clc1ccc(Cn2ccc3cc(OCc4ccc5ccccc5n4)ccc32)cc1`, the melting point lay within 102 to 104 °C.

In turn, `COC(=O)c1cc(-c2ccc3c(c2)c2cc(-c4ccc(Cl)cc4Cl)c(=O)n(C)c2n3C)on1` had a melting point of 280 to 281 °C.

`CC(=O)c1cnc(N)c(Cl)c1` came in with a melting point of 188 °C.

`CCCCC1=NC(=NOC(=O)NC)SC1(C)C` displayed a melting point of 128 to 130 °C.

`NC(=O)c1ccc(CCCOCCCCCCBr)cc1` showed a melting point of 79 to 82 °C.

In turn, `CCn1c2ccccc2c2cc(N(c3ccccc3)c3ccc(-c4ccc(N(c5ccccc5)c5ccc6c(c5)c5ccccc5n6CC)cc4)cc3)ccc21` showed a melting point of 250 to 252 °C.

On to `CN1CCC2(CC1)CNc1cc(Cl)ccc12`, for which the melting point lay within 172 to 173 °C.

In turn, `N#Cc1cc(C#N)cc(Oc2nccc(Oc3cc(Cl)cc(Cl)c3)n2)c1` had a melting point of 156 °C.

The molecule `COc1ccc(NC(=O)Cn2c3c(c4cc(Cl)c(Cl)cc42)CCN(C(=O)OC(C)(C)C)CC3)cc1` yielded a melting point of 151 to 152 °C.

`Cc1cc(C)n(-c2nc(Nc3cc(C(F)(F)F)cc(C(F)(F)F)c3)c3ccccc3n2)n1` yielded a melting point of 169 to 172 °C.

`Clc1cccc(Cl)c1Cn1c(-c2ccc3c(c2)OCO3)nc2ccccc21` showed a melting point of 187 to 189 °C.

`O=c1c2c(Cc3ccccc3OC(F)(F)F)n[nH]c2c2cccnc2n1-c1cccc(C(F)(F)F)c1`: the melting point lay within 247 to 252 °C.

For `S=c1c2c(c3cccnc3n1-c1ccccc1)OCC2`, the melting point fell in the range of 242 to 244 °C.

The molecule `Cc1ccc(OC(=O)CCCC(=O)OOC(=O)CCCC(=O)Oc2ccc(C)cc2)cc1` showed a melting point of 24 to 30 °C.

In turn, `COc1cc2c(nc1OC)c(-c1cc3c(Cl)c(F)cnc3[nH]1)cn2CCN1CCOCC1` came in with a melting point of 206 °C.

In turn, `CC(=O)NCCC(=O)NCCNC(=O)OCc1ccccc1` returned a melting point of 180 to 182 °C.

The molecule `O=c1[nH]c2ccc(Cn3ccnc3)cc2[nH]1` had a melting point of 254 °C.

Molecule `CC1(c2ccc(C#N)cc2)C(=O)N(Cc2ccc(F)cc2)Cc2cncn21` (stereo not given) had a melting point of 66 to 70 °C.

With `O=C(Nc1ccc(-n2nc(C(F)(F)F)cc2OC(F)F)cc1)c1ccccc1F`, the melting point lay within 130 to 131 °C.

Molecule `COc1cc(-c2ccccc2)nc(-c2ccc(CBr)cc2)n1` yielded a melting point of 98 to 100 °C.

Consider `[N-]=[N+]=NCc1ccc2c(NC(=O)c3ccccc3)nccc2c1`, for which the melting point fell in the range of 125 to 129 °C.

`COc1cc(OC)c2c(=O)cc(S)oc2c1C1CCN(C)CC1O` (stereo not given) came in with a melting point of 184 to 185 °C.

The molecule `CC1(C)CC(=O)C2C3CCCOC3C2(C)C1` (stereo not given) came in with a melting point of 111 to 112 °C.

`Oc1ccc(-c2ccc3ccc(O)cc3c2)cc1` yielded a melting point of 210 °C.

`CCCc1[nH]c2cc(C(N)=O)ccc2c1C(=O)C1CCC1` returned a melting point of 253 to 255 °C.

Take `CC(=O)N(c1nc2cc3nc(N(C(C)=O)N4CCCCC4C)sc3cc2s1)N1CCCCC1C` (stereo not given): the melting point fell in the range of 242 to 245 °C.

As to `Oc1ccc(N=C2SCS2)cc1`, the melting point lay in the range of 162 to 163 °C.

As to `COc1ccc(Sc2sccc2C=O)cc1`, the melting point fell in the range of 58 to 60 °C.

`CN(C)S(=O)(=O)N(c1ccc(C(=O)Nc2ccc(Br)cc2)cc1)C1OC(=O)c2ccccc21` (stereo not given): the melting point fell in the range of 244 to 246 °C.
